Columns and labels:
[1] = molecular target: T1, human melatonin MT1 receptor (MT1 CHO membranes) (Homo sapiens, UniProt P48039); assay: [3H]-melatonin competition, filtration; assay type: binding; details: for MT1 CHO membranes / pKi ± SEM: CHO membranes; […] [3H]-melatonin, pH […] MgCl2, […] °C, […] h
T1 construct: gene MTNR1A; receptor cDNA in pcDNA3.1, no tag mentioned; crude membranes
From the text: [3H]-melatonin competition, filtration on human melatonin MT1 receptor (MT1 CHO membranes)

[2] = molecular target: T2, recombinant human MT1 receptor purified from Pichia pastoris (MT1 purified) (Homo sapiens, UniProt P48039); assay: [3H]-melatonin competition, PEG precipitation and filtration; assay type: binding; details: for MT1 purified / pKi ± SEM: purified in […] Fos14/[…] CHAPS; […] [3H]-melatonin, […] CHAPS/[…] CHS, pH […] MgCl2, […] °C, […] h
T2 construct: gene MTNR1A; alpha-factor signal, Flag and 10-His tags
From the text: [3H]-melatonin competition, PEG precipitation and filtration on recombinant human MT1 receptor purified from Pichia pastoris (MT1 purified)

T2 sequence (P48039 whole entry): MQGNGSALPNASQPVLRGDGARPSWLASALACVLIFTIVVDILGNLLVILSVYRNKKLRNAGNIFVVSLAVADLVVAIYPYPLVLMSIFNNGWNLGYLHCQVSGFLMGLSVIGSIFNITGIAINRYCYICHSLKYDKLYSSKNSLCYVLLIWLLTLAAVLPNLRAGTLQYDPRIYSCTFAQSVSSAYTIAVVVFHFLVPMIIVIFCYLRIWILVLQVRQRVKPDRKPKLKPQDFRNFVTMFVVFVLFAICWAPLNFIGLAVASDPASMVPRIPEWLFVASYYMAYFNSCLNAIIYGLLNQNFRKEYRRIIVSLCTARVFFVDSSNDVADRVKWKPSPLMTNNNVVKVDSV
T1 sequence (P48039 whole entry): as above

Ki ([1]; read-out: MT1 CHO membranes / pKi ± SEM (converted)) | Ki ([2]; read-out: MT1 purified / pKi ± SEM (converted)) | MT1 CHO membranes / pKi ± SEM [1] | MT1 purified / pKi ± SEM [2] | SMILES
> 10 µM | > 10 µM |  |  | NCCc1c[nH]c2ccc(O)cc12 [5HT]
 |  | 7.76±0.15 pKi (-log M) | 7.25±0.06 pKi (-log M) | COc1ccc(CCN(C)CCCC(C#N)(c2cc(OC)c(OC)c(OC)c2)C(C)C)cc1OC (centres unmarked) [D600]
 |  | 7.71±0.14 pKi (-log M) | 7.02±0.14 pKi (-log M) | COc1ccc2ncn(CCNC(C)=O)c2c1 [S 21278]
 |  | 7.32±0.31 pKi (-log M) | 8.51±0.12 pKi (-log M) | COc1ccc2[nH]c(-c3cccc4ccccc34)c(CCNC(=O)CI)c2n1 [S 70254]

— paper PMC4069108 (PLoS ONE, 2014)
